Measured values as given in patent US7884136B2, “Modified-release formulations of a bupropion salt” (Biovail Laboratories International S.R.L., priority 2005, dated 2011).
Read-outs that look alike come from different tables or passages of the source.

How the values were obtained:
[1] = cited from earlier work
[2] = Accelerated stability study of bupropion HBr, closed bottles, 40° C./75% RH, 3 and 6 months, HPLC; type: physicochemical; settings: 40° C./R.H. 75%; for Chromatographic purity B) (HPLC): 4) 2-N-(tert-Butyl)-aminopropiophenone / Chromatographic purity B) (HPLC): 5) single unknown impurity (each): LOQ 0.02%, LOD 0.002%; for Chromatographic purity A) (HPLC): 1) 3′-Chloropropiophenone / Chromatographic purity A) (HPLC): 3) 3′-Chlorobenzoic acid / Chromatographic purity A) (HPLC): 2) 3′-Chloro-2-bromopropiophenone: LOQ 0.05%; for Chromatographic purity A) (HPLC): 1) 3′-Chloropropiophenone / Chromatographic purity A) (HPLC): 3) 3′-Chlorobenzoic acid: LOD 0.01%; for Chromatographic purity A) (HPLC): 2) 3′-Chloro-2-bromopropiophenone: LOD 0.04%; for Assay (HPLC): on d.b.; for Description: specification white or almost white crystalline powder; for Chromatographic purity B) (HPLC): 6) total unknown impurities: sum of all impurity peak areas
Method: The samples were prepared in closed bottles and placed in the stability chamber. HPLC analysis was conducted on the samples prior to placing them in the stability chamber (time 0), and after 3 months and 6 months. The amounts of the main degradation products present at time 0 were compared with those amounts present after 3 months and 6 months. […] For each sample tested, at each time period, two different HPLC assays were run. The first assay labelled chromatographic purity A, measured the percentage of three impurities 3′chloropropiophenone, 3′-Chloro-2-bromopropiophenone and 3′-Chlorobenzoic acid. The second assay, labelled chromatographic purity B, measured the percentage of 2-N-(tert-Butyl)-aminopropiophenone, a single unknown impurity and the total unknown impurities.

[3] = PEG-Fatty Acid Monoester Surfactants
[4] = Mono- and Diglyceride Surfactants
[5] = Sugar Ester Surfactants, as reported by the manufacturer
[6] = PEG-Fatty Acid Diester Surfactants
[7] = Propylene Glycol Fatty Acid Esters

PEG-4 stearate
HLB [1, 3]: 6.5

Polyglyceryl-3 dioleate
HLB ([1]; Polyglycerized Fatty Acids): <10

Polyglyceryl-6 oleate
HLB ([1]; Polyglycerized Fatty Acids): 9

CCCCCC[C@@H](O)C/C=C\CCCCCCCC(=O)OCC(O)CO (stereo partly shown) [Glyceryl ricinoleate]
HLB [1, 4]: 6

Polyglyceryl-4 stearate
HLB ([1]; Polyglycerized Fatty Acids): 5-6

CCCCCCCC(=O)OCC(O)CO (stereo not shown) [Monocaprylin]
HLB [1, 4]: <10

CCCCCCCCCCCC(=O)OCC(O)CO (stereo not shown) [Glyceryl laurate]
HLB [1, 4]: 4

Sucrose distearate
HLB [1, 5]: 3

PEG-12 distearate
HLB [1, 6]: 10.7

CCCCCCCCCCCC(=O)OCC(O)CO (stereo not shown) [Glyceryl monolaurate]
HLB [1, 4]: 6.8

PEG-40 oleate
HLB [1, 3]: 17.4

CCCCCCCCCCCC(=O)OCC(C)OC(=O)CCCCCCCCCCC (stereo not shown) [Propylene glycol dilaurate]
HLB [1, 7]: >6

PEG 100, 200, 300 monooleate
HLB [1, 3]: >10

PEG-600 oleate
HLB [1, 3]: >10

PEG 4-100 monostearate
HLB [1, 3]: >6

PEG-4 dilaurate
HLB [1, 6]: 7

PEG-5 stearate
HLB [1, 3]: 9.5

CCCCCCCC/C=C\CCCCCCCC(=O)[O-].[Na+] [Sodium oleate]
HLB ([1]; Ionic Surfactants, as reported by the manufacturer): 18

CCCCCCCC(=O)OCC(C)OC(=O)CCCCCCC (stereo not shown) [Propylene glycol dicaprylate]
HLB [1, 7]: >6

PEG-12 stearate
HLB [1, 3]: 14

Distearin
HLB [1, 4]: <10

CCCCCCCCCCCCCCCCCC(=O)OCC(CO)(CO)COC(=O)CCCCCCCCCCCCCCCCC [Pentaerythrityl distearate]
HLB ([1]; Transesterification Products of Oils and Alcohols): <10

Polyglyceryl-10 pentaoleate
HLB ([1]; Polyglycerized Fatty Acids): 3.5

PEG-8 dioleate
HLB [1, 6]: 8.8

Polyglyceryl-10 oleate
HLB ([1]; Polyglycerized Fatty Acids): 14

Polyglyceryl-10 tetraoleate
HLB ([1]; Polyglycerized Fatty Acids): 6.2

CCCCC/C=C\C/C=C\CCCCCCCC(=O)OC(C)C [Isopropyl linoleate]
HLB ([1]; Lower Alcohol Fatty Acid Ester Surfactants, as reported by the manufacturer): <10

Polyglyceryl-10 septaoleate
HLB ([1]; Polyglycerized Fatty Acids): 3

PEG-30 stearate
HLB [1, 3]: >10

PEG-400 oleate
HLB [1, 3]: >10

CCCCCCCCCCCCCCCC(=O)OC[C@@H](O)[C@H]1OC[C@H](O)[C@H]1O [Sorbitan monopalmitate]
HLB ([1]; Sorbitan Fatty Acid Ester Surfactants, as reported by the manufacturer): 6.7

CCCCCCCCCC(=O)OCC(O)CO (stereo not shown) [Monocaprin]
HLB [1, 4]: <10

Polyglyceryl-10 trioleate
HLB ([1]; Polyglycerized Fatty Acids): 7

PEG-20 glyceryl oleate
HLB ([1]; PEG Glycerol Fatty Acid Esters): >10

Polyglyceryl-2 oleate
HLB ([1]; Polyglycerized Fatty Acids): 5-7

Br.CC(NC(C)(C)C)C(=O)c1cccc(Cl)c1 (stereo not shown) [Bupropion.HBr D00894]
Chromatographic purity (HPLC: A + B) Total impurities ([2]; 3 month): 0.1% | Water content (K.F.) ([2]; 3 month): 0.07% | Chromatographic purity B) (HPLC): 4) 2-N-(tert-Butyl)-aminopropiophenone ([2]; 3 month): 4)0.03% | Chromatographic purity B) (HPLC): 5) single unknown impurity (each) ([2]; 3 month): 5) 0.04% | Chromatographic purity A) (HPLC): 1) 3′-Chloropropiophenone ([2]; 3 month): 1) n.q. | Chromatographic purity A) (HPLC): 3) 3′-Chlorobenzoic acid ([2]; 3 month): 3) n.q. | Chromatographic purity A) (HPLC): 2) 3′-Chloro-2-bromopropiophenone ([2]; 3 month): 2) n.d. | Assay (HPLC) ([2]; 3 month): 99.6% | Description ([2]; 3 month): conform | Chromatographic purity B) (HPLC): 6) total unknown impurities ([2]; 3 month): 6) 0.06% | Chromatographic purity (HPLC: A + B) Total impurities ([2]; 6 months): 0.1% | Water content (K.F.) ([2]; 6 months): 0.08% | Chromatographic purity B) (HPLC): 4) 2-N-(tert-Butyl)-aminopropiophenone ([2]; 6 months): 4) 0.04% | Chromatographic purity B) (HPLC): 5) single unknown impurity (each) ([2]; 6 months): 5) n.q. | Chromatographic purity A) (HPLC): 1) 3′-Chloropropiophenone ([2]; 6 months): 1) 0.05% | Chromatographic purity A) (HPLC): 3) 3′-Chlorobenzoic acid ([2]; 6 months): 3) n.q. | Chromatographic purity A) (HPLC): 2) 3′-Chloro-2-bromopropiophenone ([2]; 6 months): 2) n.d. | Description ([2]; 6 months): conform | Chromatographic purity (HPLC: A + B) Total impurities ([2]; time 0): 0.1% | Water content (K.F.) ([2]; time 0): 0.05% | Chromatographic purity B) (HPLC): 4) 2-N-(tert-Butyl)-aminopropiophenone ([2]; time 0): 4) 0.04% | Chromatographic purity B) (HPLC): 5) single unknown impurity (each) ([2]; time 0): 5) 0.04% | Chromatographic purity A) (HPLC): 1) 3′-Chloropropiophenone ([2]; time 0): 1) n.d. | Chromatographic purity A) (HPLC): 3) 3′-Chlorobenzoic acid ([2]; time 0): 3) n.q. | Chromatographic purity A) (HPLC): 2) 3′-Chloro-2-bromopropiophenone ([2]; time 0): 2) n.d. | Assay (HPLC) ([2]; time 0): 99.6% | Description ([2]; time 0): conform | Chromatographic purity B) (HPLC): 6) total unknown impurities ([2]; time 0): 6) 0.04%

PEG-6 dioleate
HLB [1, 6]: 7.2

PEG-12 oleate
HLB [1, 3]: 14

CCCCCCCC/C=C\CCCCCCCC(=O)OCC(O)CO (stereo not shown) [Glyceryl monooleate]
HLB [1, 4]: 3-4

PEG-4 distearate
HLB [1, 6]: 5

PEG-100 stearate
HLB [1, 3]: 19

Sucrose monopalmitate
HLB [1, 5]: >10

Br.CC(NC(C)(C)C)C(=O)c1cccc(Cl)c1 (stereo not shown) [Bupropion.HBr D00896]
Chromatographic purity (HPLC: A + B) Total impurities ([2]; 3 month): 0.1% | Water content (K.F.) ([2]; 3 month): 0.11% | Chromatographic purity B) (HPLC): 4) 2-N-(tert-Butyl)-aminopropiophenone ([2]; 3 month): 4) 0.03% | Chromatographic purity B) (HPLC): 5) single unknown impurity (each) ([2]; 3 month): 5) 0.04% | Chromatographic purity A) (HPLC): 1) 3′-Chloropropiophenone ([2]; 3 month): 1) n.q. | Chromatographic purity A) (HPLC): 3) 3′-Chlorobenzoic acid ([2]; 3 month): 3) n.q. | Chromatographic purity A) (HPLC): 2) 3′-Chloro-2-bromopropiophenone ([2]; 3 month): 2) n.d. | Assay (HPLC) ([2]; 3 month): 100.0% | Description ([2]; 3 month): conform | Chromatographic purity (HPLC: A + B) Total impurities ([2]; 6 months): 0.1% | Water content (K.F.) ([2]; 6 months): 0.04% | Chromatographic purity B) (HPLC): 4) 2-N-(tert-Butyl)-aminopropiophenone ([2]; 6 months): 4) 0.04% | Chromatographic purity B) (HPLC): 5) single unknown impurity (each) ([2]; 6 months): 5) n.q. | Chromatographic purity A) (HPLC): 1) 3′-Chloropropiophenone ([2]; 6 months): 1) 0.05% | Chromatographic purity A) (HPLC): 3) 3′-Chlorobenzoic acid ([2]; 6 months): 3) n.q. | Chromatographic purity A) (HPLC): 2) 3′-Chloro-2-bromopropiophenone ([2]; 6 months): 2) n.d. | Assay (HPLC) ([2]; 6 months): 100.4% | Description ([2]; 6 months): conform | Chromatographic purity B) (HPLC): 6) total unknown impurities ([2]; 6 months): 6) n.q. | Chromatographic purity (HPLC: A + B) Total impurities ([2]; time 0): 0.1% | Water content (K.F.) ([2]; time 0): 0.06% | Chromatographic purity B) (HPLC): 4) 2-N-(tert-Butyl)-aminopropiophenone ([2]; time 0): 4) 0.04% | Chromatographic purity B) (HPLC): 5) single unknown impurity (each) ([2]; time 0): 5) 0.05% | Chromatographic purity A) (HPLC): 1) 3′-Chloropropiophenone ([2]; time 0): 1) n.d. | Chromatographic purity A) (HPLC): 3) 3′-Chlorobenzoic acid ([2]; time 0): 3) n.q. | Chromatographic purity A) (HPLC): 2) 3′-Chloro-2-bromopropiophenone ([2]; time 0): 2) n.d. | Assay (HPLC) ([2]; time 0): 99.3% | Description ([2]; time 0): conform | Chromatographic purity B) (HPLC): 6) total unknown impurities ([2]; time 0): 6) 0.05%

Br.CC(NC(C)(C)C)C(=O)c1cccc(Cl)c1 (stereo not shown) [Bupropion.HBr D00895]
Chromatographic purity (HPLC: A + B) Total impurities ([2]; 3 month): 0.1% | Water content (K.F.) ([2]; 3 month): 0.07% | Chromatographic purity B) (HPLC): 4) 2-N-(tert-Butyl)-aminopropiophenone ([2]; 3 month): 4) 0.03% | Chromatographic purity B) (HPLC): 5) single unknown impurity (each) ([2]; 3 month): 5) 0.04% | Chromatographic purity A) (HPLC): 1) 3′-Chloropropiophenone ([2]; 3 month): 1) n.q. | Chromatographic purity A) (HPLC): 3) 3′-Chlorobenzoic acid ([2]; 3 month): 3) 0.05% | Chromatographic purity A) (HPLC): 2) 3′-Chloro-2-bromopropiophenone ([2]; 3 month): 2) n.d. | Assay (HPLC) ([2]; 3 month): 100.7% | Description ([2]; 3 month): conform | Chromatographic purity B) (HPLC): 6) total unknown impurities ([2]; 3 month): 6) 0.05% | Chromatographic purity (HPLC: A + B) Total impurities ([2]; 6 months): 0.1% | Water content (K.F.) ([2]; 6 months): 0.07% | Chromatographic purity B) (HPLC): 4) 2-N-(tert-Butyl)-aminopropiophenone ([2]; 6 months): 4) 0.04% | Chromatographic purity B) (HPLC): 5) single unknown impurity (each) ([2]; 6 months): 5) n.q. | Chromatographic purity A) (HPLC): 1) 3′-Chloropropiophenone ([2]; 6 months): 1) 0.05% | Chromatographic purity A) (HPLC): 3) 3′-Chlorobenzoic acid ([2]; 6 months): 3) n.q. | Chromatographic purity A) (HPLC): 2) 3′-Chloro-2-bromopropiophenone ([2]; 6 months): 2) n.d. | Assay (HPLC) ([2]; 6 months): 99.7% | Description ([2]; 6 months): conform | Chromatographic purity B) (HPLC): 6) total unknown impurities ([2]; 6 months): 6) 0.02% | Chromatographic purity (HPLC: A + B) Total impurities ([2]; time 0): 0.1% | Water content (K.F.) ([2]; time 0): 0.04% | Chromatographic purity B) (HPLC): 4) 2-N-(tert-Butyl)-aminopropiophenone ([2]; time 0): 4) 0.04% | Chromatographic purity B) (HPLC): 5) single unknown impurity (each) ([2]; time 0): 5) 0.04% | Chromatographic purity A) (HPLC): 1) 3′-Chloropropiophenone ([2]; time 0): 1) n.d. | Chromatographic purity A) (HPLC): 3) 3′-Chlorobenzoic acid ([2]; time 0): 3) n.q. | Chromatographic purity A) (HPLC): 2) 3′-Chloro-2-bromopropiophenone ([2]; time 0): 2) n.d. | Assay (HPLC) ([2]; time 0): 99.2% | Description ([2]; time 0): conform
